{
  "source": "paper PMC6862289",
  "about": "“Metabolic Profile, Bioavailability and Toxicokinetics of Zearalenone-14-Glucoside in Rats after Oral and Intravenous Administration by Liquid Chromatography High-Resolution Mass Spectrometry and Tandem Mass Spectrometry” (International Journal of Molecular Sciences, 2019)",
  "key": {"[1]": {"assay": "Toxicokinetics of ZEN-14G in rats after oral and intravenous administration (plasma LC-MS/MS, non-compartmental analysis)", "assay_type": "in vivo, Wistar rats", "details": "for k el: mean ± SD, n = 12, read-out: λZ (elimination rate constant) (converted); for AUC(0-inf): read-out: AUC0-infinity; for half-life: read-out: Elimination t1/2 (converted); for amount observed in plasma after intravenous administration of ZEN-14G: i.v. ZEN-14G 0.75 mg/kg, Figure 3D; for level detected in plasma after oral administration of ZEN-14G: p.o. ZEN-14G 0.75 mg/kg, Figure 3A", "procedure": "The validated LC-MS/MS method was eligible for the toxicokinetic characterization of ZEN-14G in rats. The obtained data (above the LOQ) were analyzed via non-compartmental analysis using WinNonlin 6.3 software (Pharsight Co. Mountain View, CA, USA). The area under the plasma concentration–time curve (AUC) was obtained using the trapezoidal rule with extrapolation to infinity. […] The half-life period of ZEN in pigs was much longer than ZEN-14G in rats, which may be attributed to enterohepatic circulation. […] The low absolute bioavailability of ZEN-14G might be due to the deglycosylation of ZEN-14G to ZEN. The CL and VZ are extremely different between oral (p.o.) and intravenous (i.v.) administration. The VZ depends on the total mass absorbed and the plasma concentration. For oral administration, the low plasma concentration of ZEN-14G may because ZEN-14G appeared to be distributed into a very large volume or rapidly biotransformed into other compounds. The low oral bioavailability and low plasma concentration of ZEN-14G led to the […] VZ than that of i.v. administration. […] CL is the volume of blood from which a compound is removed per unit time. In comparison with p.o., much more of ZEN-14G was absorbed in the plasma after intravenous injection (i.v.)—more volume of blood cleared of ZEN-14G per unit time.\nZEN-14G was dissolved in aqueous solution containing 0.5% carboxymethyl cellulose. We selected twelve Wistar rats (half male and half female, with an average weight of 180 g, obtained from Vital River Laboratory Animal Technology Co. Ltd (Beijing, China). The rats were raised for one week for acclimation before the experiment, and the rats went through a 12 h fast before dosing. Six rats were treated with ZEN-14G via oral gavage at a dosage of 0.75 mg/kg body weight followed by blood collection at 0.083, 0.16, 0.25, 0.5, 0.75, 1.0, 1.5, 2, 4, and 6 h post administration while the other six rats were administered with the same amount of ZEN-14G intravenously and the blood samples were collected at the same time points. After a one-week withdrawal period, a crossover design was used for the following experiment where the rats administered orally would receive intravenous administration and vice versa. […] All the animal experiments complied with the National Institutes of Health guide for the care and use of laboratory animals, which has been approved on 20 March 2018 by the ethical committee of China Agricultural University (Beijing, China) (2018-SYXK-0238).\nWe extracted 100 μL of plasma using 100 μL of acetonitrile followed by centrifugation for 5 min at 14,000× g at 4 °C. This analytical method was established based on the published literature. The supernatant was gathered, evaporated until dry and eventually re-dissolved in 100 μL of 15% acetonitrile. This analytical method was soundly validated in plasma before application.\nThe separation and identification of ZEN-14G and its metabolites were performed on a Phenomenex column (Kinetex 50 mm × 2.1 mm i.d. 1.7 μm particle size, C18) using an ultra-high-performance liquid chromatograph (Agilent 1260 Infinity) coupled to a triple quadrupole mass spectrometer (Agilent 6495) under negative ESI mode (Agilent Technologies, Palo Alto, CA, USA). The chromatographic separations were achieved through a gradient elution program. Mobile phase A was water containing 0.1% formic acid, and phase B was acetonitrile containing 0.1% formic acid. The gradient elution program for phase B was listed as: 0–1 min, 0%–15%; 1–2 min, 15%–45%; 2–4 min, 45%–90%; 4–5 min, 90%; 5–5.1 min, 90%–15%; and 5.1–6.0 min, 15%. The key parameters for the mass spectrometer were as follows: capillary voltage (3.5 kV); gas temperature (250 °C); gas flow (11 L/min); nebulizer (45 psi); sheath gas temperature (350 °C); and sheath gas flow (12 L/min). Furthermore, the detailed information on precursor ions and the product ions of ZEN-14G and quantifiable products are described in Table S1. […]"}, "estrogenic receptors": {"system": "estrogenic receptors", "parameters": "method as in PMID 32625539", "details": "compared with ZEN; cited from earlier work"}, "[2]": {"details": "pigs; cited from earlier work"}, "[3]": {"details": "broiler chickens; cited from earlier work"}, "[4]": {"details": "poultry; cited from earlier work"}, "[5]": {"details": "female pigs; cited from earlier work"}, "[6]": {"details": "rats; cited from earlier work"}, "[7]": {"details": "both sexes, Wistar, rat, in vivo, iv, 0.75 mg/kg body weight"}, "[8]": {"details": "both sexes, Wistar, rat, in vivo, po, 0.75 mg/kg body weight"}},
  "note": "Where two headings read alike, the source gives them in different places.",
  "data": [
    {"compound": "CC1CCCC(=O)CCC/C=C/c2cc(OC3OC(CO)C(O)C(O)C3O)cc(O)c2C(=O)O1", "note": "(stereo not drawn) [ZEN-14G, Zearalenone-14-glucoside]", "values": [
      {"measurement": "visible adverse phenomena", "setting": "[1]; 0.75 mg/kg body weight, any route of administration (p.o., i.v.)", "value": "No visible adverse phenomena"},
      {"measurement": "bioavailability", "setting": "[1]; both sexes, Wistar, rat, in vivo, 0.75 mg/kg, AUC oral / AUC intravenous × 100%, 0.75 mg/kg body weight, read-out: F (absolute oral bioavailability)", "value": "~9", "unit": "%"},
      {"measurement": "AUC(0-t)", "setting": "[1]; [7]", "value": "1.79 ± 0.03", "unit": "ng·h/mL"},
      {"measurement": "k el", "setting": "[1]; [7]", "value": 0.000883, "unit": "s⁻¹"},
      {"measurement": "AUC(0-inf)", "setting": "[1]; [7]", "value": "1.8 ± 0.02", "unit": "ng·h/mL"},
      {"measurement": "half-life", "setting": "[1]; [7]", "value": "13.2 ± 1.8", "unit": "min"},
      {"measurement": "MRT", "setting": "[1]; both sexes, Wistar, rat, in vivo, iv, 0.75 mg/kg, i.v., 0.75 mg/kg body weight, read-out: MRT (mean residence time)", "value": "12 ± 1.8", "unit": "min"},
      {"measurement": "Vd", "setting": "[1]; both sexes, Wistar, rat, in vivo, iv, 0.75 mg/kg, i.v., 0.75 mg/kg body weight, read-out: VZ (apparent volume of distribution)", "value": "7.25 ± 1.23", "unit": "L/kg"},
      {"measurement": "Vd", "setting": "[1]; both sexes, Wistar, rat, in vivo, iv, 0.75 mg/kg, i.v., 0.75 mg/kg body weight, read-out: VZ (apparent volume of distribution), as printed in text", "value": 87.2, "unit": "L/kg"},
      {"measurement": "AUC(0-t)", "setting": "[1]; [8]", "value": "0.11 ± 0.03", "unit": "ng·h/mL"},
      {"measurement": "Cmax", "setting": "[1]; [8]", "value": "0.2 ± 0.03", "unit": "ng/mL"},
      {"measurement": "Tmax", "setting": "[1]; [8]", "value": "4.98 ± 0.6", "unit": "min"},
      {"measurement": "k el", "setting": "[1]; [8]", "value": 0.0002, "unit": "s⁻¹"},
      {"measurement": "AUC(0-inf)", "setting": "[1]; [8]", "value": "0.16 ± 0.02", "unit": "ng·h/mL"},
      {"measurement": "CL/F", "setting": "[1]; both sexes, Wistar, rat, in vivo, po, 0.75 mg/kg body weight, read-out: CL (apparent total body clearance) (converted)", "value": 75, "unit": "mL/min/kg"},
      {"measurement": "half-life", "setting": "[1]; [8]", "value": "57.6 ± 4.2", "unit": "min"},
      {"measurement": "CL (apparent total body clearance)", "setting": "[1]; i.v., 0.75 mg/kg body weight", "value": "83.7 ± 10.3", "unit": "mL/min/kg"},
      {"measurement": "VZ (apparent volume of distribution)", "setting": "[1]; p.o., 0.75 mg/kg body weight", "value": "6.24 ± 0.73", "unit": "L/kg"},
      {"measurement": "time point of the peak concentration", "setting": "[1]; p.o., first time point", "value": 5, "unit": "min"},
      {"measurement": "estrogenic potency", "setting": "estrogenic receptors", "value": "comparable to that of ZEN"}
    ]},
    {"compound": "CC1CCC[C@H](O)CCC/C=C/c2cc(O)cc(O)c2C(=O)O1", "note": "(stereo partly drawn) [α-ZEL, α-zearalenol]", "values": [
      {"measurement": "amount observed in plasma after intravenous administration of ZEN-14G", "setting": "[1]", "value": "small amount"},
      {"measurement": "level detected in plasma after oral administration of ZEN-14G", "setting": "[1]", "value": "trace level"}
    ]},
    {"compound": "CC1CCC[C@H](O)CCC/C=C/c2cc(OC3OC(CO)C(O)C(O)C3O)cc(O)c2C(=O)O1", "note": "(stereo partly drawn) [α-ZEL-14G]", "values": [
      {"measurement": "amount observed in plasma after intravenous administration of ZEN-14G", "setting": "[1]", "value": "small amount"}
    ]},
    {"compound": "CC1=C[C@H]2O[C@@H]3[C@H](O[C@@H]4O[C@H](CO)[C@@H](O)[C@H](O)[C@H]4O)C[C@](C)([C@@]2(CO)[C@H](O)C1=O)[C@]31CO1", "note": "[DON-3G, deoxynivalenol-3-β-D-glucoside]", "values": [
      {"measurement": "absolute oral bioavailability", "setting": "[2]", "value": 16.1, "unit": "%"},
      {"measurement": "absolute oral bioavailability", "setting": "[3]", "value": 3.79, "unit": "%"}
    ]},
    {"compound": "C[C@H]1CCCC(=O)CCC/C=C/c2cc(O)cc(O)c2C(=O)O1", "note": "[ZEN, Zearalenone]", "values": [
      {"measurement": "oral bioavailability", "setting": "[4]", "value": 10, "unit": "%"},
      {"measurement": "yield of ZEN in plasma relative to that of ZEN-14G", "setting": "[1]; after i.v. ZEN-14G 0.75 mg/kg body weight", "value": "approximately 4.5 times"},
      {"measurement": "level detected in plasma after oral administration of ZEN-14G", "setting": "[1]", "value": "trace level"},
      {"measurement": "absolute oral bioavailability", "setting": "[5]", "value": "around 51.5%"},
      {"measurement": "oral bioavailability", "setting": "[6]", "value": 10, "unit": "%"}
    ]}
  ]
}
